Data: PMC11372076, “A dual inhibitor of PIP5K1C and PIKfyve prevents SARS-CoV-2 entry into cells” (Experimental & Molecular Medicine, 2024)
Where two headings read alike, the source gives them in different places.

What was measured:
cathepsin D = assay: Cathepsin D maturation by Western blot; type: cell-based
[1] = test system: ACE2-mediated endocytosis in HEK293T cells; type: cell-based; settings: 20 μg/mL spike-RBD, 2 h
RPE1 cells [2] = assay: Western blot of autophagy-monitoring proteins SQSTM1/p62 and LC3-II; type: cell-based
Source text: Fig. 2 UNI418 inhibits autophagy. a Western blot analysis of p62, LC3B-I, LC3B-II and GAPDH in the presence of UNC3230, apilimod and UNI418. b Immunofluorescence staining with LC3B (green) and p62 (red) antibodies upon treatment with UNC3230, apilimod and UNI418, and images within the white rectangular boxes are magnified on the right side. Scale bar, 20 µm. c The area of fluorescence intensity from immunofluorescence images (b) was quantified after UNC3230, apilimod and UNI418 treatments. d, e Quantification of autophagic flux under normal conditions and under HBSS-induced starvation conditions with or without UNI418 treatment. RPE1 cells were treated with UNI418 (0.5 µM or 1 µM) for 2 h in the presence or absence of a lysosomal inhibitor (bafilomycin A1, BFA). Representative Western blot images (d) and the graph showing the average of 4 independent experiments (e). The error bars indicate the S.D. Statistical analysis was performed using two-way ANOVA; *p < 0.05, ***p < 0.001.
Supplementary Materials and Methods
The whole cell extracts were prepared by lysis of harvested cells with M -PER Mammalian protein extraction reagent (Thermo Fisher Scientific). The protein concentrations were determined by Bradford protein assay (Bio- Rad). The 10 to 20 μ g of prepared proteins were separated by the SDS-PAGE and transferred to PVDF membrane, which were then blocked in 5% skim milk for 30 minutes at room temperature. […] The images were obtained and quantified by Fusion solo ChemiDoc system (Vilber).
Autophagic flux assay was analyzed essentially as previously described1,2.
Briefly, RPE1 cells were treated with UNI418 (0, 0.5, or 1 µM) for 2 h with/without bafilomycin A1 to inhibit lysosomal degradation under normal growth media or HBSS. […] The LC3- II bands were quantified using Fusion Solo ChemiDoc system (Vilber) and normalized to GAPDH bands.
Autophagy flux was calculated by subsidizing the lysosomal inhibitor-treated cells to non- treatment cells in both normal growth media and HBSS-induced starvation with 0, 0.5, or 1 µM UNI418. […]

SARS-CoV-2 = assay: microbe, parasite or virus in culture; type: cell-based, SARS-CoV-2 (hCoV-19/Korea/KCDC06/2020); settings: for EC50: read-out: EC50 (reducing number of spike-positive cells by 50%)
[3] = test system: Wuhan-Hu-1 spike-pseudotyped virus; assay: microbe, parasite or virus in culture; type: cell-based, SARS-CoV-2; settings: read-out: concentration that inhibited spike-mediated viral entry by 50% compared to maximal inhibition
Vero cells [4] = assay: Endosomal pH change test with acridine orange; type: cell-based; settings: 1 µM for 1 h
Description: This image-based experiment was performed according to our previous report with some modifications. Vero cells were cultured in a glass bottom 35 mm dish (6 × 10^4 cells per well) overnight. Each compound, including 1 µM UNC3230, apilimod or UNI418, was added to Vero cells for 1 h at 37 °C. The cells were stained with acridine orange (Sigma‒Aldrich, A9231) at a final concentration of 4 µg/mL for 30 min. After washing with PBS twice, images were acquired using a confocal microscope (Zeiss LSM 700, Baden-Württemberg, Germany) at two emission wavelengths, 493 to 560 nm and 590 to 720 nm, with excitation at 488 nm. The green-to-red ratio or vacuole size was measured using the built-in software ZEN 3.1.
Fig. 3 UNI418 negatively affects autophagosome-lysosome fusion and endosome acidification. a Live-cell imaging of HEK293T cells stably expressing mCherry-GFP-LC3 treated with 0.5 μM UNI418 at the indicated time points; the images within the white rectangular boxes are magnified on the right side. Scale bar, 30 µm. The number (b) and area (c) of GFP-positive dots per cell were quantified by ImageXpress. d Immunofluorescence images illustrating the inhibition of endolysosomal acidification by UNI418. Vero cells were treated with the mock control or 1 µM UNC3230, apilimod or UNI418 for 1 h at 37 °C. Acridine orange (4 µg/mL) was added to the compound-treated live cells, followed by additional incubation for 30 min. The cells were analyzed by confocal microscopy using two emission wavelengths at 493–560 (green) and 590–720 nm (red) after excitation at 488 nm. Merged images are presented, and images within the white rectangular boxes are magnified on the right side. Original magnification, 630×. The green-to-red fluorescence intensity ratio (e) and the area of fluorescent spots (f) were quantified. b, c, e, f The data are presented as the means ± SEMs, with a minimum of 200 spots. Statistical significance was determined by Student’s t test; *p < 0.05, **p < 0.01, ***p < 0.001 and ****p < 0.0001. n.s., not significant.

Vero cells [5] = test system: Vero cells
RPE1 cells [6] = assay: Vacuolization analysis; type: cell-based
Description: CUGAUCAAGAU G A -3 and PIKfyve#2 siRNA 5'-
[…] -3'. siRNA oligonucleotides were purchased from Genolution, Sigma- Aldrich and Integrated DNA Technologies.
These siRNAs were transfected into the cell using lipofectamine RNAiMAX (Invitrogen, 13778150) following manufacturer ’s protocol.
RPE1 cells were treated with UNI418 at indicated concentration for over-night.
After that, the image was taken by EVOS M5000 (Thermo Fisher Scientific).
RPE1 cells were treated with UNI418 at the different concentration during the time. Live cell images were taken by Lionheart LX Automated Microscope and analyzed in Gen5 (Agilent).
RPE1 cells were treated with indicated doses of UNI418 overnight. To analyze PIP2 level by flow cytometry, trypsinized cells were fixed with 4% paraformaldehyde for 10 min at room temperature. The fixed cells were permeabilized with 0.2% PBS-T (Triton X-100) for 5min and blocked with 5% Bovine Serum Albumin (BSA), and stained with the primary antibody for 4h at 4°C. Cells were washed three times with 1% BSA-PBS and incubated with the fluorescence- conjugated secondary antibody Alexa Fluor® 488 AffiniPure Goat Anti-Mouse IgG (H+L) (Jackson ImmunoResearch,111- 545- 003) for 1h at room temperature analyzed by BD Accuri C6 Plus flow cytometer (BD Biosciences). […]

in vitro = settings: African green monkey

In the case of NC(=O)c1nc(Nc2ccccc2)sc1NC(=O)C1CCCCC1 [UNC3230], the “proteolytic cleavage (maturation) of cathepsin D” value (cathepsin D) is reported as “did not”, the “ACE2-mediated endocytosis triggered by spike-RBD” value ([1]; 0.5 μM compound) is reported as “successfully inhibited” and the “accumulation of SQSTM1/p62 and LC3-II” value (RPE1 cells [2]) is reported as “did not have the same effect”. For the same compound, the EC50 (SARS-CoV-2) was 95.1 µM, the IC50 [3] was 4 µM and the “green-to-red ratio of fluorescent spots relative to mock-treated sample” value (Vero cells [4]) was 2.6 fold. The “cytotoxicity on Day 2” value (Vero cells [5]; Vero cells, Day 2) was “highly toxic”, the CC50 (Vero cells [5]; mock-infected Vero cells, MTT, Day 1) was over 100 µM and the vacuolization (RPE1 cells [6]) was “did not induce vacuoles”.
With O=C(N/N=C/c1ccc(O)c(O)c1)c1cc2ccccc2cc1O [dynasore] the “ACE2-mediated endocytosis triggered by spike-RBD” value ([1]; 0.1 mM dynasore) was “successfully inhibited”.
For CCC(CC)COC(=O)[C@H](C)N[P@](=O)(OC[C@H]1O[C@@](C#N)(c2ccc3c(N)ncnn23)[C@H](O)[C@@H]1O)Oc1ccccc1 [remdesivir], the EC50 (SARS-CoV-2; Severe acute respiratory syndrome coronavirus 2, Vero, 48 h) was 8.9 µM, the “selectivity index (SI), ratio of CC50 to EC50” value (SARS-CoV-2; Vero cells, Day 2) was over 11.2 and the CC50 (in vitro) was over 100 µM.
